The data set is described as follows: collision cross section (DTIM-MS, N2); higher = larger ion. On the procedure: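 Collision cross section (CCS) of drug and natural-product chemical standards (validation set 2, measured in this paper). Three independent measurements were made across 2 months; the value taken is their mean (avg_ccs), for the ion adduct given.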

Consider `C=C1C(=O)O[C@H]2[C@H]1CC/C(C)=C\CC[C@@]1(C)O[C@@H]21` [Parthenolide], for which the collision cross section (ion adduct: [M+H]+) was 154.23 Å².

Turning to `O=C(/C=C/c1ccc(O)c(O)c1)OCCc1ccccc1` [Caffeic acid phenethyl ester], the collision cross section (ion adduct: [M-H]-) is 176.94 Å².

On to `COC(=O)Nc1nc2ccccc2[nH]1` [Carbendazim], for which the collision cross section (ion adduct: [M+H]+) worked out at 138.81 Å².

In turn, `C=C(C)C1CC=C(C=NO)CC1` (stereo unspecified) [Perillartine] yielded a collision cross section (ion adduct: [M+H]+) of 138.73 Å².

Regarding `CCCCCCCC(O)CC(=O)CCc1ccc(O)c(OC)c1` (stereo unspecified) [8-Gingerol], the collision cross section (ion adduct: [M-H]-) is 178.08 Å².

Turning to `COc1ccc(-c2cc(=O)c3c(O)cc(O)c(-c4cc(-c5cc(=O)c6c(O)cc(O)cc6o5)ccc4OC)c3o2)cc1` [Isoginkgetin], the collision cross section is on record as 231.51 Å² (ion adduct: [M+H]+) and 230.78 Å² (ion adduct: [M-H]-).

Regarding `CCOc1cc(NC(C)=O)ccc1C(=O)OC` [Ethopabate], the collision cross section runs as follows: (ion adduct: [M+H]+) 151.13 Å²; (ion adduct: [M-H]-) 158.16 Å².

Regarding `CO[C@H]1C=CO[C@@]2(C)Oc3c(C)c(O)c4c(O)c(c(/C=N/N5CCN(C)CC5)c(O)c4c3C2=O)NC(=O)/C(C)=C\C=C/[C@H](C)[C@H](O)[C@@H](C)[C@@H](O)[C@@H](C)[C@H](OC(C)=O)[C@@H]1C` [Rifampicin], the collision cross section runs as follows: (ion adduct: [M+H]+) 284.23 Å²; (ion adduct: [M-H]-) 284.94 Å².

Under “ion adduct: [M+H]+”, `CC1(C)CCC[C@@]2(C)OC(=O)C=C12` registered a collision cross section of 138.93 Å².

`COc1cc(O)c2c(=O)cc(-c3ccc(O)cc3)oc2c1` [Genkwanin]: the collision cross section reads like this: (ion adduct: [M+H]+) 163.54 Å²; (ion adduct: [M-H]-) 166.12 Å².

`CC(=O)OC5CC(=O)O[C@@](C)(C)[C@@H]6CC(=O)[C@]3(C)[C@H](CC[C@@]2(C)[C@@H](OC(=O)[C@H]1O[C@]123)c4ccoc4)[C@@]56C` (stereo partly specified) [Nomilin] came in with a collision cross section (ion adduct: [M+H]+) of 217.15 Å² and a collision cross section (ion adduct: [M-H]-) of 219.9 Å².

In the case of `COc1c(O)c(C)cc2c1C(=O)c1c(O)cccc1C2=O` [Obtusifolin], the collision cross section was 158.75 Å² (ion adduct: [M+H]+) and 160.85 Å² (ion adduct: [M-H]-).

As for `COc1cc(/C=C/C(=O)N2CCC=CC2=O)cc(OC)c1OC` [Piperlongumine], the collision cross section (ion adduct: [M+H]+) is listed as 179.46 Å².

Under “ion adduct: [M-H]-”, `CC1(C)CC[C@]2(C(=O)O[C@@H]3O[C@H](CO)[C@@H](O)[C@H](O)[C@H]3O)CC[C@]3(C)C(=CC[C@@H]4[C@@]5(C)CC[C@H](O[C@@H]6O[C@H](C(=O)O)[C@@H](O)[C@H](O)[C@H]6O[C@@H]6O[C@H](CO)[C@@H](O)[C@H](O)[C@H]6O)C(C)(C)[C@@H]5CC[C@]43C)[C@@H]2C1` [Ginsenoside Ro] gave a collision cross section of 310.46 Å².

Where the note is “ion adduct: [M+H]+”, `COC1=CC(=O)O[C@@H](CCc2ccccc2)C1` [Dihydrokavain] displayed a collision cross section of 149.11 Å².

For `O=C1C[C@@H](c2ccccc2)Oc2cc(O)cc(O)c21` [Pinocembrin], the collision cross section is 157.96 Å² (ion adduct: [M+H]+) and 159.74 Å² (ion adduct: [M-H]-).

Turning to `CC1=CC23C(=O)C(C=C(CO)C(O)C2(O)C1O)C1C(CC3C)C1(C)C` (stereo unspecified) [Ingenol], the collision cross section (ion adduct: [M-H]-) is 184.41 Å².

For the setting “ion adduct: [M-H]-”, `CC(/C=C/C=C(\C)C(=O)O[C@@H]1O[C@H](CO)[C@@H](O)[C@H](O)[C@H]1O)=C\C=C\C=C(C)\C=C\C=C(/C)C(=O)O[C@@H]1O[C@H](CO[C@@H]2O[C@H](CO)[C@@H](O)[C@H](O)[C@H]2O)[C@@H](O)[C@@H](O)[C@H]1O` [Crocin II] came in with a collision cross section of 280.87 Å².

As to `O=C1C(O)=C([C@H]2CC[C@H](c3ccc(Cl)cc3)CC2)C(=O)c2ccccc21` [Atovaquone], the collision cross section (ion adduct: [M-H]-) is 193.52 Å².

Compound `O=c1[nH]c(=O)n(C2CCCO2)cc1F` (stereo unspecified) [Tegafur] came in with a collision cross section (ion adduct: [M-H]-) of 142.34 Å².

In the case of `NC(=O)c1ccccc1O` [Salicylamide], the collision cross section stood at 124.71 Å² (ion adduct: [M+H]+) and 122.43 Å² (ion adduct: [M-H]-).

For the setting “ion adduct: [M-H]-”, `C=C1C[C@]23C[C@@]1(O)CC[C@H]2[C@@]12C=C[C@H](O)[C@@](C)(C(=O)O1)[C@H]2[C@@H]3C(=O)O` [Gibberellic acid] registered a collision cross section of 177.69 Å².

On to `C=CC[C@]1(O)CC[C@H]2[C@@H]3CCC4=CC(=O)CCC4=C3C=C[C@@]21C` [Altrenogest], for which the collision cross section reads like this: (ion adduct: [M+H]+) 178.86 Å²; (ion adduct: [M-H]-) 180.56 Å².

Regarding `COc1ccc(C[C@H]2NC[C@H](O)[C@H]2OC(C)=O)cc1` [Anisomycin], the collision cross section (ion adduct: [M+H]+) was 164.18 Å².

The compound `NC[C@H]1O[C@H](O[C@H]2[C@H](O)[C@@H](O[C@H]3O[C@H](CO)[C@@H](O)[C@H](N)[C@H]3O)[C@H](N)C[C@@H]2N)[C@H](N)C[C@@H]1O` [Tobramycin] displayed a collision cross section (ion adduct: [M+H]+) of 202.65 Å² and a collision cross section (ion adduct: [M-H]-) of 203.66 Å².

In turn, `COc1cc(/C=C/C(=O)O)cc(OC)c1OC` [3,4,5-Trimethoxycinnamic acid] yielded a collision cross section (ion adduct: [M-H]-) of 167.91 Å².

Turning to `Cc1cc(=O)oc2cc(O)cc(O)c12` [5,7-Dihydroxy-4-methylcoumarin], the collision cross section by setting is: (ion adduct: [M+H]+) 136.89 Å²; (ion adduct: [M-H]-) 135.28 Å².

`COc1cc([C@H]2Oc3cc([C@H]4Oc5cc(O)cc(O)c5C(=O)[C@@H]4O)ccc3O[C@@H]2CO)ccc1O` [Silybin]: the collision cross section is, setting by setting: (ion adduct: [M+H]+) 208.54 Å²; (ion adduct: [M-H]-) 204.63 Å².

With `O=C(/C=C/C=C/c1ccc2c(c1)OCO2)N1CCCCC1` [Piperine], the collision cross section (ion adduct: [M+H]+) was 177.2 Å².

Compound `COc1cc(C2Oc3ccc(C4Oc5cc(O)cc(O)c5C(=O)C4O)cc3OC2CO)ccc1O` (stereo unspecified) [Isosilybin] showed a collision cross section (ion adduct: [M+H]+) of 214.42 Å².

`O=C(O)c1ccccc1Nc1cccc(C(F)(F)F)c1` [Flufenamic acid]: the collision cross section reads like this: (ion adduct: [M+H]+) 159.39 Å²; (ion adduct: [M-H]-) 160.69 Å².

`COc1cc(O)c2c(c1)oc(=O)c1c3cc(O)c(O)cc3oc21` [Wedelolactone]: the collision cross section runs as follows: (ion adduct: [M+H]+) 167.93 Å²; (ion adduct: [M-H]-) 168.67 Å².

`O=c1cc(-c2ccc(O)c(O)c2)oc2cc(O[C@@H]3O[C@H](CO)[C@@H](O)[C@H](O)[C@H]3O)cc(O)c12` [Luteolin-7-O-glucoside]: the collision cross section is, setting by setting: (ion adduct: [M+H]+) 209.01 Å²; (ion adduct: [M-H]-) 210.14 Å².

As for `C[C@@H]1O[C@@H](Oc2c(-c3cc(O)c(O)c(O)c3)oc3cc(O)cc(O)c3c2=O)[C@H](O)[C@H](O)[C@H]1O` [Myricitrin], the collision cross section (ion adduct: [M-H]-) turned out to be 199.23 Å².

In the case of `C[C@H]1CC[C@]2(OC1)O[C@H]1C[C@H]3[C@@H]4CC=C5C[C@@H](O)CC[C@]5(C)[C@H]4CC[C@]3(C)[C@H]1[C@@H]2C` [Diosgenin], the collision cross section (ion adduct: [M+H]+) is given as 209.65 Å².

In turn, `CC(C)NC(=O)N1CC(=O)N(c2cc(Cl)cc(Cl)c2)C1=O` [Iprodione] came in with a collision cross section (ion adduct: [M+H]+) of 180.27 Å².

`O=C(CCc1ccc(O)cc1)c1c(O)cc(O)cc1O[C@@H]1O[C@H](CO)[C@@H](O)[C@H](O)[C@H]1O` [Phlorizin]: the collision cross section (ion adduct: [M-H]-) stood at 193.11 Å².

Consider `COc1cc2c(cc1OC)[C@@H]1C(=O)c3ccc4c(c3O[C@@H]1CO2)C=CC(C)(C)O4` [Deguelin], for which the collision cross section (ion adduct: [M+H]+) is reported as 196.5 Å² and the collision cross section (ion adduct: [M-H]-) is given as 198.36 Å².

For the compound `O=P(OCCCl)(OCCCl)OCCCl` [Tris(2-chloroethyl) phosphate], the collision cross section (ion adduct: [M+H]+) turned out to be 151.08 Å².

In turn, `Cn1c(=O)c2c(ncn2CC(=O)O)n(C)c1=O` [Theophylline-7-acetic acid] returned a collision cross section (ion adduct: [M+H]+) of 152.03 Å².

On to `OC[C@@H](O)[C@@H](O)[C@@H](O)[C@@H](O)CO` [Allitol], for which the collision cross section (ion adduct: [M-H]-) is recorded as 132.47 Å².

As to `COc1cc(C(C)=O)ccc1O` [Acetovanillone], for the setting “ion adduct: [M-H]-”, the collision cross section is on record as 133.81 Å².

As for `COc1cc(O)ccc1/C=C/C(=O)c1ccc(O)cc1` [Echinatin], the collision cross section is, setting by setting: (ion adduct: [M+H]+) 167.45 Å²; (ion adduct: [M-H]-) 171.54 Å².

For the compound `Cc1cc(=O)oc2cc(O)c(O)cc12` [4-Methyl-6,7-dihydroxycoumarin], the collision cross section is reported as 136.8 Å² (ion adduct: [M+H]+) and 135.33 Å² (ion adduct: [M-H]-).

The compound `CCCCCCCCOC(=O)c1ccccc1C(=O)OCCCCCCCC` [DI-N-OCTYL PHTHALATE] returned a collision cross section (ion adduct: [M+H]+) of 211 Å².

In turn, `c1ccc2c(c1)Nc1ccccc1S2` [Phenothiazine] registered a collision cross section (ion adduct: [M-H]-) of 140.54 Å².

Regarding `COc1cc(C=CC(=O)CC(=O)C=Cc2ccc(O)cc2)ccc1O` [Demethoxycurcumin], for the setting “ion adduct: [M+H]+”, the collision cross section worked out at 193.33 Å².

`Cc1cccc(Nc2ccccc2C(=O)O)c1C` [Mefenamic acid]: the collision cross section (ion adduct: [M+H]+) is reported as 154.75 Å².

Regarding `COc1c(C=CC(=O)c2ccc(O)cc2)ccc(O)c1O` [Licochalcone B], the collision cross section is 170.36 Å² (ion adduct: [M+H]+) and 171.14 Å² (ion adduct: [M-H]-).

For the setting “ion adduct: [M+H]+”, `Nc1ccc(S(=O)(=O)[N-]c2cnc3ccccc3n2)cc1.[Na+]` [Sulfaquinoxaline sodium] showed a collision cross section of 184.69 Å².

The compound `C[C@]12C=CC(=O)C=C1CC[C@@H]1[C@@H]2C(=O)C[C@@]2(C)[C@H]1CC[C@]2(O)C(=O)CO` [Prednisone] had a collision cross section (ion adduct: [M+H]+) of 185.04 Å² and a collision cross section (ion adduct: [M-H]-) of 191.16 Å².

As to `Nc1nc2c(ncn2COCCO)c(=O)[nH]1` [Aciclovir], the collision cross section is 149.17 Å² (ion adduct: [M+H]+) and 148.31 Å² (ion adduct: [M-H]-).

Take `COc1ccc(C=CC(=O)c2c(O)cc(OC)cc2OC)cc1` [Flavokawain A]: the collision cross section reads like this: (ion adduct: [M+H]+) 176.36 Å²; (ion adduct: [M-H]-) 184.75 Å².

Take `Cc1cc(=O)oc2c([N+](=O)[O-])c(O)ccc12` [7-hydroxy-4-methyl-8-nitrocoumarin]: the collision cross section (ion adduct: [M+H]+) came to 144.57 Å².
